The nature of the data set: Maximum solubility of the active agent in various excipients. The format is physicochemical.

Bounds are passed on as bounds.

For `CCCc1cc(C(O)(CC)CC)ccc1-c1cc(OCc2ccc(CO)c(CO)c2)ccc1CC` [Active agent, {4-[6-ethyl-4′-(1-ethyl-1-hydroxypropyl)-2′-propylbiphenyl-3-yloxymethyl]-2-hydroxy-methylphenyl}methanol], the Sol max reads like this: (in Arlamol E) 1.033 % w/w; (in Cremophor RH40) 3.989 % w/w; (in Ethanol 95) more than 20 % w/w; (in Eutanol G) 0.322 % w/w; (in IPP) 0.1654 % w/w; (in Labrafil M1944CS) 0.936 % w/w. For the same compound, the Sol max is recorded as 0.3167 % w/w (in Miglyol 812); 6.894 % w/w (in PEG 400); 0.0009 % w/w (in Primol 352); 2.3351 % w/w (in Propylene glycol); 0.0932 % w/w (in Sweet almond oil); more than 20 % w/w (in Transcutol).

The record behind these values is patent US20100286285A1, “Pharmaceutical composition comprising oleaginous ointments and vitamin D or its derivatives in the solubilized state” (GALDERMA RESEARCH & DEVELOPMENT, priority 2005, published 2010).
